Measured values as given in US12723063B2, “GIPR-agonist compounds” (Eli Lilly and Company, priority 2019, dated 2026).
*1 amine or outer side, *2 acyl side, *3 side chain or, on linkers, in order; H or OH if unused. Where a SMILES comes first, the peptide text is derived from it. Side-chain parts run from the residue outwards. [ ]: non-standard residue; d: D form. The star is where a group is joined. C20 diacid = O=C(O)CCCCCCCCCCCCCCCCCCC(=O)*; γGlu = O=C(O)[C@H](CCC(=O)[*:2])N[*:1]; 4Pal = N[C@@H](Cc1ccncc1)C(=O)O; αMeL = CC(C)C[C@](C)(N)C(=O)O; Orn = NCCC[C@H](N)C(=O)O; AEEA = NCCOCCOCC(=O)O; Aib = CC(C)(N)C(=O)O

Columns and labels:
[1] = target: T1, human GLP-1 receptor (GLP-1R) (Homo sapiens, UniProt P43220); experiment: cAMP functional assay (HTRF) in HEK293 cells in presence of 0.1% casein; assay type: cell-based; conditions: HEK293 cells expressing human GLP-1R, geometric mean, read-out: hGLP1R cAMP Rel EC50 nM (SEM, n)
T1 construct: expressed in transfected cells; host or cells: HEK293
T1 sequence (P43220 24-463): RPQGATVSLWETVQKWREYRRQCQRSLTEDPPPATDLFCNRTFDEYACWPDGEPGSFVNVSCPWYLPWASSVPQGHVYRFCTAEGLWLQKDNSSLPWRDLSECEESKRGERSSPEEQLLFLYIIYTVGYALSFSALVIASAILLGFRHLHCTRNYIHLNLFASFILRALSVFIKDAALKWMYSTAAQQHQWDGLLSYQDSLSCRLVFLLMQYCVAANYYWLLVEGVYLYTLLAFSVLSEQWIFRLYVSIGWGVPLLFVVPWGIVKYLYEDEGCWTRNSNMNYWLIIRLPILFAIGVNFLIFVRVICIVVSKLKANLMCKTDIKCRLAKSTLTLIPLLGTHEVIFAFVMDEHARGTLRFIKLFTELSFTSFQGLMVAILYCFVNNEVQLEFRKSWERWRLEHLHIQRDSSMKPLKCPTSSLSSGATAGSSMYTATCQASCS

[2] = target: T2, human GIPR (Homo sapiens, UniProt P48546); experiment: [125I]-GIP binding, SPA with WGA beads, 0.1% bacitracin; conditions: geometric mean, read-out: hGIPR Ki
T2 construct: expressed in transfected cells; crude membranes
T2 sequence (P48546 22-466): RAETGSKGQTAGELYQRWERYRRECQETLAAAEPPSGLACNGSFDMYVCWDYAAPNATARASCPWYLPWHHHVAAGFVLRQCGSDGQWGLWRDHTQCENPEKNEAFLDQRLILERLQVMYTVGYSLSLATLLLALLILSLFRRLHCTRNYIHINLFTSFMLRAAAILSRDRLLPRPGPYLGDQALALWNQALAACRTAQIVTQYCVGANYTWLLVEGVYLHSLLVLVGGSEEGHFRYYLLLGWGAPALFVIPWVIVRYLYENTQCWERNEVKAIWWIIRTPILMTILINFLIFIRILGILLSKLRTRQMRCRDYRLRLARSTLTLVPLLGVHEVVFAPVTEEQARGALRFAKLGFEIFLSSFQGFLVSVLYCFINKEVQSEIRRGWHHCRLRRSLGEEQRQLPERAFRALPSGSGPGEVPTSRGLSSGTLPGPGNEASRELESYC
In short: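 Ki values are geometric means (SEM, n independent days), derived from four-parameter nonlinear regression of IC50. Membranes came from hGIPR-expressing CHO cells.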

Row | SMILES | EC50 [1] [nM] | Ki [2] [nM]
1 | CC[C@H](C)[C@H](NC(=O)[C@H](Cc1ccccc1)NC(=O)[C@@H](NC(=O)CNC(=O)[C@H](CCC(=O)O)NC(=O)C(C)(C)NC(=O)[C@@H](N)Cc1ccc(O)cc1)[C@@H](C)O)C(=O)N[C@@H](CO)C(=O)N[C@@H](CC(=O)O)C(=O)N[C@@H](Cc1ccc(O)cc1)C(=O)N[C@@H](CO)C(=O)N[C@H](C(=O)N[C@@](C)(CC(C)C)C(=O)N[C@@H](CC(C)C)C(=O)N[C@@H](CC(=O)O)C(=O)N[C@@H](CCCN)C(=O)N[C@@H](CCCCNC(=O)COCCOCCNC(=O)COCCOCCNC(=O)CC[C@H](NC(=O)CCCCCCCCCCCCCCCCCCC(=O)O)C(=O)O)C(=O)N[C@@H](Cc1c[nH]cn1)C(=O)N[C@@H](CCC(N)=O)C(=O)NC(C)(C)C(=O)N[C@@H](CC(=O)O)C(=O)N[C@@H](Cc1ccccc1)C(=O)N[C@H](C(=O)N[C@@H](CCC(=O)O)C(=O)N[C@@H](Cc1ccncc1)C(=O)N[C@@H](CC(C)C)C(=O)N[C@@H](CC(C)C)C(=O)N[C@@H](CCC(=O)O)C(=O)N[C@H](C(=O)NCC(=O)N1CCC[C@H]1C(=O)N[C@@H](CO)C(=O)N[C@@H](CO)C(=O)NCC(=O)N[C@@H](C)C(=O)N1CCC[C@H]1C(=O)N1CCC[C@H]1C(=O)N1CCC[C@H]1C(=O)N[C@@H](CO)C(N)=O)[C@@H](C)O)C(C)C)[C@@H](C)CC [Example 80] (H-Y[Aib]EGTFISDYSI[αMeL]LD[Orn]K([AEEA-AEEA-γGlu-C20 diacid])HQ[Aib]DFVE[4Pal]LLETGPSSGAPPPS-NH2) | > 5000 | 0.0828
2 | CC[C@H](C)[C@H](NC(=O)[C@H](Cc1ccccc1)NC(=O)[C@@H](NC(=O)CNC(=O)[C@H](CCC(=O)O)NC(=O)C(C)(C)NC(=O)[C@@H](N)Cc1ccc(O)cc1)[C@@H](C)O)C(=O)N[C@@H](CO)C(=O)N[C@@H](CC(=O)O)C(=O)N[C@@H](Cc1ccc(O)cc1)C(=O)N[C@@H](CO)C(=O)N[C@H](C(=O)N[C@@](C)(CC(C)C)C(=O)N[C@@H](CC(C)C)C(=O)N[C@@H](CC(=O)O)C(=O)N[C@@H](CCCN)C(=O)N[C@@H](CCCCNC(=O)COCCOCCNC(=O)COCCOCCNC(=O)CC[C@H](NC(=O)CCCCCCCCCCCCCCCCCCC(=O)O)C(=O)O)C(=O)N[C@@H](Cc1c[nH]cn1)C(=O)N[C@@H](CCC(N)=O)C(=O)NC(C)(C)C(=O)N[C@@H](CC(=O)O)C(=O)N[C@@H](Cc1ccccc1)C(=O)N[C@H](C(=O)N[C@@H](CCC(=O)O)C(=O)N[C@@H](Cc1ccncc1)C(=O)N[C@@H](CC(C)C)C(=O)N[C@@H](CC(C)C)C(=O)N[C@@H](CCC(=O)O)C(=O)N[C@@H](CCC(N)=O)C(=O)NCC(=O)N1CCC[C@H]1C(=O)N[C@@H](CO)C(=O)N[C@@H](CO)C(=O)NCC(=O)N[C@@H](C)C(=O)N1CCC[C@H]1C(=O)N1CCC[C@H]1C(=O)N1CCC[C@H]1C(=O)N[C@@H](CO)C(N)=O)C(C)C)[C@@H](C)CC [Example 81] (H-Y[Aib]EGTFISDYSI[αMeL]LD[Orn]K([AEEA-AEEA-γGlu-C20 diacid])HQ[Aib]DFVE[4Pal]LLEQGPSSGAPPPS-NH2) | > 5000 | 0.0374
3 | CC[C@H](C)[C@H](NC(=O)[C@H](Cc1ccccc1)NC(=O)[C@@H](NC(=O)CNC(=O)[C@H](CCC(=O)O)NC(=O)C(C)(C)NC(=O)[C@@H](N)Cc1ccc(O)cc1)[C@@H](C)O)C(=O)N[C@@H](CO)C(=O)N[C@@H](CC(=O)O)C(=O)N[C@@H](Cc1ccc(O)cc1)C(=O)N[C@@H](CO)C(=O)N[C@H](C(=O)N[C@@](C)(CC(C)C)C(=O)N[C@@H](CC(C)C)C(=O)N[C@@H](CC(=O)O)C(=O)N[C@@H](CCCN)C(=O)N[C@@H](CCCCNC(=O)COCCOCCNC(=O)COCCOCCNC(=O)CC[C@H](NC(=O)CCCCCCCCCCCCCCCCCCC(=O)O)C(=O)O)C(=O)N[C@@H](Cc1c[nH]cn1)C(=O)N[C@@H](CCC(N)=O)C(=O)NC(C)(C)C(=O)N[C@@H](CC(=O)O)C(=O)N[C@@H](Cc1ccccc1)C(=O)N[C@H](C(=O)N[C@@H](CCC(=O)O)C(=O)N[C@@H](Cc1ccncc1)C(=O)N[C@@H](CC(C)C)C(=O)N[C@@H](CC(C)C)C(=O)N[C@@H](CCC(=O)O)C(=O)NCC(=O)NCC(=O)N1CCC[C@H]1C(=O)N[C@@H](CO)C(=O)N[C@@H](CO)C(=O)NCC(=O)N[C@@H](C)C(=O)N1CCC[C@H]1C(=O)N1CCC[C@H]1C(=O)N1CCC[C@H]1C(=O)N[C@@H](CO)C(N)=O)C(C)C)[C@@H](C)CC [Example 82] (H-Y[Aib]EGTFISDYSI[αMeL]LD[Orn]K([AEEA-AEEA-γGlu-C20 diacid])HQ[Aib]DFVE[4Pal]LLEGGPSSGAPPPS-NH2) | > 5000 | 0.0617
4 | CC[C@H](C)[C@H](NC(=O)[C@H](Cc1ccccc1)NC(=O)[C@@H](NC(=O)CNC(=O)[C@H](CCC(=O)O)NC(=O)C(C)(C)NC(=O)[C@@H](N)Cc1ccc(O)cc1)[C@@H](C)O)C(=O)N[C@@H](CO)C(=O)N[C@@H](CC(=O)O)C(=O)N[C@@H](Cc1ccc(O)cc1)C(=O)N[C@@H](CO)C(=O)N[C@H](C(=O)N[C@@](C)(CC(C)C)C(=O)N[C@@H](CC(C)C)C(=O)N[C@@H](CC(=O)O)C(=O)N[C@@H](CCC(=O)O)C(=O)N[C@@H](CCCCNC(=O)COCCOCCNC(=O)COCCOCCNC(=O)CC[C@H](NC(=O)CCCCCCCCCCCCCCCCCCC(=O)O)C(=O)O)C(=O)N[C@@H](Cc1c[nH]cn1)C(=O)N[C@@H](CCC(N)=O)C(=O)NC(C)(C)C(=O)N[C@@H](CC(=O)O)C(=O)N[C@@H](Cc1ccccc1)C(=O)N[C@H](C(=O)N[C@@H](CCC(=O)O)C(=O)N[C@@H](Cc1ccncc1)C(=O)N[C@@H](CC(C)C)C(=O)N[C@@H](CC(C)C)C(=O)N[C@@H](C)C(=O)N[C@H](C(=O)NCC(=O)N1CCC[C@H]1C(=O)N[C@@H](CO)C(=O)N[C@@H](CO)C(=O)NCC(=O)N[C@@H](C)C(=O)N1CCC[C@H]1C(=O)N1CCC[C@H]1C(=O)N1CCC[C@H]1C(=O)N[C@@H](CO)C(N)=O)[C@@H](C)O)C(C)C)[C@@H](C)CC [Example 83] (H-Y[Aib]EGTFISDYSI[αMeL]LDEK([AEEA-AEEA-γGlu-C20 diacid])HQ[Aib]DFVE[4Pal]LLATGPSSGAPPPS-NH2) | > 5000 | 0.116
5 | CC[C@H](C)[C@H](NC(=O)[C@H](Cc1ccccc1)NC(=O)[C@@H](NC(=O)CNC(=O)[C@H](CCC(=O)O)NC(=O)C(C)(C)NC(=O)[C@@H](N)Cc1ccc(O)cc1)[C@@H](C)O)C(=O)N[C@@H](CO)C(=O)N[C@@H](CC(=O)O)C(=O)N[C@@H](Cc1ccc(O)cc1)C(=O)N[C@@H](CO)C(=O)N[C@H](C(=O)N[C@@](C)(CC(C)C)C(=O)N[C@@H](CC(C)C)C(=O)N[C@@H](CC(=O)O)C(=O)N[C@@H](CCC(=O)O)C(=O)N[C@@H](CCCCNC(=O)COCCOCCNC(=O)COCCOCCNC(=O)CC[C@H](NC(=O)CCCCCCCCCCCCCCCCCCC(=O)O)C(=O)O)C(=O)N[C@@H](Cc1c[nH]cn1)C(=O)N[C@@H](CCC(N)=O)C(=O)NC(C)(C)C(=O)N[C@@H](CC(=O)O)C(=O)N[C@@H](Cc1ccccc1)C(=O)N[C@H](C(=O)N[C@@H](CCC(=O)O)C(=O)N[C@@H](Cc1ccncc1)C(=O)N[C@@H](CC(C)C)C(=O)N[C@@H](CC(C)C)C(=O)N[C@@H](C)C(=O)N[C@@H](CCC(N)=O)C(=O)NCC(=O)N1CCC[C@H]1C(=O)N[C@@H](CO)C(=O)N[C@@H](CO)C(=O)NCC(=O)N[C@@H](C)C(=O)N1CCC[C@H]1C(=O)N1CCC[C@H]1C(=O)N1CCC[C@H]1C(=O)N[C@@H](CO)C(N)=O)C(C)C)[C@@H](C)CC [Example 84] (H-Y[Aib]EGTFISDYSI[αMeL]LDEK([AEEA-AEEA-γGlu-C20 diacid])HQ[Aib]DFVE[4Pal]LLAQGPSSGAPPPS-NH2) | > 5000 | 0.0584
6 | CC[C@H](C)[C@H](NC(=O)[C@H](Cc1ccccc1)NC(=O)[C@@H](NC(=O)CNC(=O)[C@H](CCC(=O)O)NC(=O)C(C)(C)NC(=O)[C@@H](N)Cc1ccc(O)cc1)[C@@H](C)O)C(=O)N[C@@H](CO)C(=O)N[C@@H](CC(=O)O)C(=O)N[C@@H](Cc1ccc(O)cc1)C(=O)N[C@@H](CO)C(=O)N[C@H](C(=O)N[C@@](C)(CC(C)C)C(=O)N[C@@H](CC(C)C)C(=O)N[C@@H](CC(=O)O)C(=O)N[C@@H](CCC(=O)O)C(=O)N[C@@H](CCCCNC(=O)COCCOCCNC(=O)COCCOCCNC(=O)CC[C@H](NC(=O)CCCCCCCCCCCCCCCCCCC(=O)O)C(=O)O)C(=O)N[C@@H](Cc1c[nH]cn1)C(=O)N[C@@H](CCC(N)=O)C(=O)NC(C)(C)C(=O)N[C@@H](CC(=O)O)C(=O)N[C@@H](Cc1ccccc1)C(=O)N[C@H](C(=O)N[C@@H](CCC(=O)O)C(=O)N[C@@H](Cc1ccncc1)C(=O)N[C@@H](CC(C)C)C(=O)N[C@@H](CC(C)C)C(=O)N[C@@H](C)C(=O)N[C@@H](C)C(=O)NCC(=O)N1CCC[C@H]1C(=O)N[C@@H](CO)C(=O)N[C@@H](CO)C(=O)NCC(=O)N[C@@H](C)C(=O)N1CCC[C@H]1C(=O)N1CCC[C@H]1C(=O)N1CCC[C@H]1C(=O)N[C@@H](CO)C(N)=O)C(C)C)[C@@H](C)CC [Example 85] | > 5000 | 0.0529
